These results are taken from patent publication US10947205B2, “Oxazolidinone compounds and methods of use thereof as antibacterial agents” (priority 2015, dated 2021).

In test [1] the test system is Staphylococcus aureus (methicillin resistant, MB5393, COL). Description: microbe, parasite or virus in culture. Format: cell-based. Particulars: MRSA, 22 h, read-out: MRSA COL MITC95 μM. As for the experimental part: Inhibition of Staphylococcus aureus (methicillin resistant, MB5393, COL) growth was assessed in cation adjusted Mueller Hinton II broth (CAMHB) in 384-well microtiter plates. Bacteria were dispensed into microtiter plates at approximately 5×10^5 actively growing cells in 49 μL volumes per well. Cells were exposed to 2-fold serial dilutions of compounds from 200 μM to 0.195 μM and growth compared to drug-free control. Compound dilutions were prepared in 100% dimethylsulfoxide and added to microtiter plates in 1 μL volumes per well. Full growth control wells contained dimethylsufoxide and bacteria. No growth control wells contained dimethysulfoxide and CAMHB but no bacteria. Growth inhibition was assessed after a 22-hour growth period by measuring optical density using a spectrophotometer. The lowest concentration of test compound required to inhibit 95% of the growth of the bacteria was defined as the MITC95. All studies were done in a BSL2 facility.

Test [2] relates to Mycobacterium tuberculosis (Mtb). The experiment in a line: microbe, parasite or virus in culture. Format: cell-based, Mycobacterium tuberculosis H37Rv (Mtb-GFP). Particulars: 168 h.
[3] abbreviates: pH 6.8, read-out: Mtb Cho MITC95_μM.
Where [4] appears, read: pH 6.8, read-out: Mtb Glu MITC95_μM.

Structures are written as SMILES. Values after ≈ are worked out from the molar mass of the structure shown. Where two headings read alike, the source gives them in different places.

With `CSc1ccc(-c2ccc(N3C[C@H](CNC(=O)NN(C)C)OC3=O)cc2F)cc1` [Example 60, (S)—N-((3-(2-fluoro-4′-(methylthio)-[1,1′-biphenyl]-4-yl)-2-oxooxazolidin-5-yl)methyl)-2,2-dimethylhydrazinecarboxamide], the MIC in test [1] stood at 200 µM (≈ 83.7 µg/mL); in test [2] (setting [3]) it was 1.14 µM (≈ 0.477 µg/mL); in test [2] (setting [4]), 2.3 µM (≈ 0.963 µg/mL).
In the case of `NC[C@H]1CN(c2ccc(-c3ccsc3)c(F)c2)C(=O)O1` [Example 15, (5S)-5-(aminomethyl)-3-(3-fluoro-4-thiophen-3-ylphenyl)-1,3-oxazolidin-2-one], the MIC in test [1] stood at 200 µM (≈ 58.5 µg/mL); in test [2] (setting [3]) it was 0.58 µM (≈ 0.17 µg/mL); in test [2] (setting [4]), 1.14 µM (≈ 0.333 µg/mL).
For `CSc1ccc(-c2ccc(N3CC(Cn4ccnc4)OC3=O)cc2F)cc1` (stereo in doubt) [Example 45, (5R)-3-[2-fluoro-4′-(methylsulfanyl)biphenyl-4-yl]-5-(1H-imidazol-1-ylmethyl)-1,3-oxazolidin-2-one], in that order: 200 µM (≈ 76.7 µg/mL), 0.39 µM (≈ 0.15 µg/mL) and 1.14 µM (≈ 0.437 µg/mL).
For `CN(C)S(=O)(=O)c1ccc(-c2ccc(N3C[C@H](CN)OC3=O)cc2F)cc1` [Example 14, 4′-[(5S)-5-(aminomethyl)-2-oxo-1,3-oxazolidin-3-yl]-2′-fluoro-N,N-dimethylbiphenyl-4-sulfonamide], in that order: 200 µM (≈ 78.7 µg/mL), 1.14 µM (≈ 0.449 µg/mL) and 0.78 µM (≈ 0.307 µg/mL).
In the case of `NC[C@H]1CN(c2ccc(-c3ccoc3)c(F)c2)C(=O)O1` [Example 12, (5S)-5-(aminomethyl)-3-(3-fluoro-4-furan-3-ylphenyl)-1,3-oxazolidin-2-one], the MIC in test [1] was determined as 200 µM (≈ 55.3 µg/mL); in test [2] (setting [3]), 1.14 µM (≈ 0.315 µg/mL); in test [2] (setting [4]), 1.14 µM (≈ 0.315 µg/mL).
Turning to `NC[C@H]1CN(c2ccc(-c3ccc(O)cc3)c(F)c2)C(=O)O1` [Example 11, (5S)-5-(aminomethyl)-3-(2-fluoro-4′-hydroxybiphenyl-4-yl)-1,3-oxazolidin-2-one], the figures for the MIC in test [1], in test [2] (setting [3]) and in test [2] (setting [4]) were 200 µM (≈ 60.5 µg/mL), 0.14 µM (≈ 0.0423 µg/mL) and 25.1 µM (≈ 7.59 µg/mL), respectively.
With `NC[C@H]1CN(c2ccc(-c3cncc4[nH]ccc34)c(F)c2)C(=O)O1` [Example 35, (5S)-5-(aminomethyl)-3-[3-fluoro-4-(1H-pyrrolo[2,3-c]pyridin-4-yl)phenyl]-1,3-oxazolidin-2-one], the results for the MIC in test [1], in test [2] (setting [3]) and in test [2] (setting [4]) were 200 µM (≈ 65.3 µg/mL), 0.58 µM (≈ 0.189 µg/mL) and 1.14 µM (≈ 0.372 µg/mL), respectively.
On the same counts, the results for `NC[C@H]1CN(c2ccc(-c3cnn(C(F)F)c3)c(F)c2)C(=O)O1` [Example 36, (5S)-5-(aminomethyl)-3-{4-[1-(difluoromethyl)-1H-pyrazol-4-yl]-3-fluorophenyl}-1,3-oxazolidin-2-one] are 200 µM (≈ 65.3 µg/mL), 0.48 µM (≈ 0.157 µg/mL) and 1.5 µM (≈ 0.489 µg/mL).
